The record followed here is US4217450A, “Imidazoledicarboxylic acid substituted cephalosporin derivatives” (Ajinomoto Company, Incorporated, priority 1977, dated 1980).

Molecules are shown by their SMILES. In brackets after ≈: the same amount, converted by molar mass. Structures can show the parent of a compound that is named as a salt.

In this assay the test system is Pseudomonas aeruginosa AJ 2116. The assay can be described thus: MIC using Pseudomonas aeruginosa AJ 2116 as the test organism. Format: cell-based. Conditions: AJ2116, read-out: MIC (Minimum Inhibitory concentration).
Description: Comparative MIC's for compounds using Pseudomonas aeruginosa AJ 2116 as the test organism are as follows: "MIC" represents the Minimum INhibitory concentration in mcg./ml of the compound required to inhibit the growth of the test organism described.
As to `CC1(C)S[C@@H]2[C@H](NC(=O)C(C(=O)O)c3ccccc3)C(=O)N2[C@H]1C(=O)O` (some centres unmarked) [Carbenicillin, reference compound], the MIC was 100 µg/mL (≈ 264 µM).
For `CC1(C)S[C@@H]2[C@H](NC(=O)[C@H](NC(=O)c3nc[nH]c3C(=O)O)c3ccccc3)C(=O)N2[C@H]1C(=O)O` [I, D-α-(4-carboxyimidazole-5-carboxyamido)benzylpenicillin disodium salt monohydrate], the MIC turned out to be 12.5 µg/mL.
In the case of `NC(=O)c1cc[n+](CC2=C(C(=O)[O-])N3C(=O)[C@@H](NC(=O)[C@H](NC(=O)c4nc[nH]c4C(=O)O)c4ccccc4)[C@H]3SC2)cc1` [II, 7-β-[D-(-)-α-(4-carboxyimidazole-5-carbox-amido)-phenylacetoamido]-3-(4-carbamoylpyridinium)methyl-3-cephem-4-carboxylic acid.mixture of K and Na salt.trihydrate] it was 12.5 µg/mL; in that of `CC1(C)S[C@@H]2[C@H](NC(=O)[C@H](NC(=O)c3nc(O)[nH]c3C(=O)O)c3ccccc3)C(=O)N2[C@H]1C(=O)O` [III, D-α-(2-hydroxy-4-carboxyimidazole-5-carboxamido)benzylpenicillin], 25 µg/mL (≈ 49.7 µM).
Turning to `CC1(C)S[C@@H]2[C@H](NC(=O)[C@H](NC(=O)c3nc(S)[nH]c3C(=O)O)c3ccccc3)C(=O)N2[C@H]1C(=O)O` [IV, D-α-(2-mercapto-4-carboxyimidazole-5-carboxamido)benzylpenicillin], the MIC turned out to be 50 µg/mL (≈ 96.2 µM).
As for `O=C([O-])C1=C(C[n+]2ccc(CCS(=O)(=O)O)cc2)CS[C@@H]2[C@H](NC(=O)[C@H](NC(=O)c3nc[nH]c3C(=O)O)c3ccccc3)C(=O)N12` [IX, 7-β-[D-(-)-α-(4-carboxyimidazole-5-carboxamido)phenylacetamido]-3-(4-β-sulphoethylpyridinium)-methyl-3-cephem-4-carboxylic acid], the MIC worked out at 12.5 µg/mL (≈ 18.6 µM).
With `Cc1nc(C(=O)N[C@@H](C(=O)N[C@@H]2C(=O)N3[C@@H]2SC(C)(C)[C@@H]3C(=O)O)c2ccccc2)c(C(=O)O)[nH]1` [V, D-α-(2-methyl-4-carboxyimidazole-5-carboxamido) benzylpenicillin], the MIC was found to be 50 µg/mL (≈ 99.7 µM).
In the case of `CC1(C)S[C@@H]2[C@H](NC(=O)[C@H](NC(=O)c3nc(Cl)[nH]c3C(=O)O)c3ccccc3)C(=O)N2[C@H]1C(=O)O` [VI, D-α-(2-chloro-4-carboxyimidazole-5-carboxamido)benzylpenicillin] it was 50 µg/mL (≈ 95.8 µM); in that of `CC1(C)S[C@@H]2[C@H](NC(=O)[C@H](NC(=O)c3nc(N)[nH]c3C(=O)O)c3ccccc3)C(=O)N2[C@H]1C(=O)O` [VII, D-α-(2-amino-4-carboxyimidazole-5-carboxamido)benzylpenicillin], 50 µg/mL (≈ 99.5 µM).
`Cn1nnnc1SCC1=C(C(=O)O)N2C(=O)[C@@H](NC(=O)[C@H](NC(=O)c3nc[nH]c3C(=O)O)c3ccccc3)[C@H]2SC1` [VIII, 7-β-[-(-)-α-(4-carboxyimidazole-5-carboxamido)phenylacetamido]-3-[[(1-methyl-1H-tetrazol-5-yl)thio]methyl]-3-cephem-4-carboxylic acid]: the MIC worked out at 50 µg/mL (≈ 83.4 µM).
As to `CC1(C)S[C@@H]2[C@H](NC(=O)[C@H](N)c3ccccc3)C(=O)N2[C@H]1C(=O)O` [ampicillin, reference compound], the MIC is greater than 500 µg/mL.
